# Reference: paper PMC8344021, “Discovery of Small Molecule Bak Activator for Lung Cancer Therapy” (Theranostics, 2021)
# Biological target: T1, BH3 deletion human Bak mutant protein (ΔBH3) (Homo sapiens, UniProt Q16611, DEL74-90)
# T1 construct: His6; made in house; host or cells: Escherichia coli BL21 DE3
# Assay: Isothermal titration calorimetry (ITC), BH3 deletion mutant
# Assay type: binding
# Protocol: The binding affinity of BKA-073 with Bak protein was examined by isothermal titration calorimetry (ITC) assay as described, [28]. ITC assay was carried out in the auto-iTC200 instrument (MicroCal, GE) at 25 °C. Purified recombinant human or mouse Bak protein was loaded into a 96 Deepwell PP plate. BKA-073 compound was then titrated stepwise into the protein for a total of 16 injections. Reference power and initial delay were set as 5 µCal/sec and 60s, respectively. A string speed of 750 rpm was used for the ITC measurements. The binding constant (Kd) value was determined by fitting the titration curve to a one-site binding mode, using the Origin software provided by the manufacturer.
# To confirm the binding of BKA-073 with Bak, we first conducted a competitive fluorescence polarization (FP) assay using purified human Bak protein, fluorescent Bak BH3 domain peptide, and BKA-073 as described, [37]-[40]. […] There are multiple amino acid differences in the BH3 domains between Bak and other Bcl2 family members, which helps to explain why BKA-073 only binds to Bak but not to other Bcl2 family members (i.e. Bax, Bcl2, Bcl-XL, Bcl-w and Mcl-1). In addition to the FP assay, isothermal titration calorimetry (ITC) was also employed to measure Bak/BKA-073 binding. […] In addition to human Bak/BKA-073 binding, we measured mouse Bak/BKA-073 binding using ITC. […]
# T1 sequence (Q16611 with tags, fused parts or gaps DEL74-90 limits assumed): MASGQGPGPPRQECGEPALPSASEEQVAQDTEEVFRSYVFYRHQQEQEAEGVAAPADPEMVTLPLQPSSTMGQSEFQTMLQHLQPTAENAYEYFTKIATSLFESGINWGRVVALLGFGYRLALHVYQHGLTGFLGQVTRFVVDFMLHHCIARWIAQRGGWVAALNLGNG
smiles,measurement,value
COc1ccc2nc3ccccc3c(NCCNCC(C)O)c2c1 (stereo not shown) [BKA-073],binding to ΔBH3 Bak mutant,failed to bind
